Measurements reported in patent US20240180880A1, “METHODS OF USING EHMT2 INHIBITORS IN TREATING OR PREVENTING BLOOD DISORDERS” (Epizyme, Inc., priority 2017, published 2024).
Like-named read-outs stand apart in the source and are kept apart here.

Test system: 284 cell lines
Assay: cells
Conditions: Homo sapiens
Experimental: A screen of 284 cell lines to assess the antiproliferative effect of EHMT2 inhibition was conducted by treating cell lines in 384-well format with a half-log step dilutions of Compound 205 over 10 concentrations with a maximum concentration of 0.1% v/v DMSO. Cells were plated on Day 0 and treated with compound on Day 1. Culture medium was replaced on day 7 and cells redosed. After 10-day incubation, cells were fixed and stained with nuclear dye. Automated fluorescence microscopy was carried out using a Molecular Devices ImageXpress Micro XL high-content imager, and images were collected with a 4× objective. 16-bit TIFF images were acquired and analyzed with MetaXpress 5.1.0.41 software. Cell proliferation was measured by the fluorescence intensity of the incorporated nuclear dye. Cell count IC50 is the test compound concentration at 50% of maximal response of the untreated control.

Measured: IC50

CNc1cc(C)nc(Nc2ccc(OC)c(OCCCN3CCCC3)c2)n1 [Compound 205]
> 10 µM: NCI-H508, read-out: Cell Count IC50, NCI-H508, Colon | NCI-H520, read-out: Cell Count IC50, NCI-H520, Lung, NSCLC | NCI-H596, read-out: Cell Count IC50, NCI-H596, Lung, NSCLC | OE19, read-out: Cell Count IC50, OE19, Head and Neck | OE33, read-out: Cell Count IC50, OE33, Head and Neck | OVCAR-3, read-out: Cell Count IC50, OVCAR3, Female GU, Ovary | PFSK-1, read-out: Cell Count IC50, PFSK-1, Central Nervous System, Glioma | RL95-2, read-out: Cell Count IC50, RL95-2, Female GU, Uterus | Raji, read-out: Cell Count IC50, Raji, Hematopoietic, Lymphoma | SCC-4, read-out: Cell Count IC50, SCC-4, Head and Neck | SHP77, read-out: Cell Count IC50, SHP-77, Lung, SCLC | SK-LMS-1, read-out: Cell Count IC50, SK-LMS-1, Soft & Connective Tissue, Sarcoma | SK-N-FI, read-out: Cell Count IC50, SK-N-FI, Central Nervous System, Neuroblastoma | SK-NEP-1, read-out: Cell Count IC50, SK-NEP-1, Kidney | SK-OV-3, read-out: Cell Count IC50, SKOV3, Female GU, Ovary | SK-UT-1, read-out: Cell Count IC50, SK-UT-1, Soft & Connective Tissue, Sarcoma | SNU1, read-out: Cell Count IC50, SNU-1, Stomach | SU.86.86, read-out: Cell Count IC50, SU.86.86, Pancreas | SW13, read-out: Cell Count IC50, SW-13, Endocrine, Adrenal gland | SW948, read-out: Cell Count IC50, SW948, Colon | SW 954, read-out: Cell Count IC50, SW954, Female GU, Vulva | SW 962, read-out: Cell Count IC50, SW962, Female GU, Vulva | SW982, read-out: Cell Count IC50, SW982, Soft & Connective Tissue, Sarcoma | SW1353, read-out: Cell Count IC50, SW1353, Bone, Osteosarcoma | T47D, read-out: Cell Count IC50, T47D, Breast
< 0.01 µM: SCC-9, read-out: Cell Count IC50, SCC-9, Head and Neck | SCC-25, read-out: Cell Count IC50, SCC-25, Head and Neck
0.1 to 1 µM: NCI-H661, read-out: Cell Count IC50, NCI-H661, Lung, NSCLC | RPMI-6666, read-out: Cell Count IC50, RPMI 6666, Hematopoietic, Lymphoma | SAOS-2, read-out: Cell Count IC50, SaOS2, Bone, Osteosarcoma | SU-DHL-4, read-out: Cell Count IC50, SU-DHL-4, Hematopoietic, Lymphoma | SW684, read-out: Cell Count IC50, SW684, Soft & Connective Tissue, Sarcoma | SW1463, read-out: Cell Count IC50, SW1463, Colon
1 to 10 µM: NCI-H747, read-out: Cell Count IC50, NCI-H747, Colon | NTERA-2-cl-D1, read-out: Cell Count IC50, NTERA-2 cl.D1, Testis | PANC-1, read-out: Cell Count IC50, PANC-1, Pancreas | PSN1, read-out: Cell Count IC50, PSN-1, Pancreas | RKOE6, read-out: Cell Count IC50, RKOE6, Colon | RPMI-7951, read-out: Cell Count IC50, RPMI-7951, Skin, Melanoma | RPMI-8226, read-out: Cell Count IC50, RPMI 8226, Hematopoietic, Myeloma | RS4-11, read-out: Cell Count IC50, RS4;11, Hematopoietic, Leukemia | Ramos, read-out: Cell Count IC50, Ramos (RA 1), Hematopoietic, Lymphoma | SCaBER, read-out: Cell Count IC50, SCaBER, Bladder | SJRH30, read-out: Cell Count IC50, SJRH30, Soft & Connective Tissue, Sarcoma | SJSA-1, read-out: Cell Count IC50, SJSA1, Bone, Osteosarcoma | SK-BR-3, read-out: Cell Count IC50, SK-BR-3, Breast | SK-MEL3, read-out: Cell Count IC50, SK-MEL-3, Skin, Melanoma | SK-MEL-1, read-out: Cell Count IC50, SK-MEL-1, Skin, Melanoma | SK-MEL-28, read-out: Cell Count IC50, SK-MEL-28, Skin, Melanoma | SK-MES-1, read-out: Cell Count IC50, SKMES1, Lung, NSCLC | SK-N-AS, read-out: Cell Count IC50, SK-N-AS, Central Nervous System, Neuroblastoma | SNB-19, read-out: Cell Count IC50, SNB-19, Central Nervous System, Glioma | SNU-5, read-out: Cell Count IC50, SNU-5, Stomach | SNU-16, read-out: Cell Count IC50, SNU-16, Stomach | SNU-423, read-out: Cell Count IC50, SNU-423, Liver | SNU-C2B, read-out: Cell Count IC50, SNU-C2B, Colon | ST486, read-out: Cell Count IC50, ST486, Hematopoietic, Lymphoma | SU-DHL10, read-out: Cell Count IC50, SU-DHL-10, Hematopoietic, Lymphoma | SU-DHL-8, read-out: Cell Count IC50, SU-DHL-8, Hematopoietic, Lymphoma | SUP-T1, read-out: Cell Count IC50, SUP-T1, Hematopoietic, Lymphoma | SW48, read-out: Cell Count IC50, SW48, Colon | SW480, read-out: Cell Count IC50, SW480, Colon | SW837, read-out: Cell Count IC50, SW837, Colon | SW872, read-out: Cell Count IC50, SW872, Soft & Connective Tissue, Sarcoma | SW900, read-out: Cell Count IC50, SW900, Lung, SCLC | SW1088, read-out: Cell Count IC50, SW1088, Central Nervous System, Glioma | SW1417, read-out: Cell Count IC50, SW1417, Colon | SW1783, read-out: Cell Count IC50, SW1783, Central Nervous System, Glioma | SW-403, read-out: Cell Count IC50, SW403, Colon | SW-620, read-out: Cell Count IC50, SW620, Colon | SiHa, read-out: Cell Count IC50, SiHa, Female GU, Cervix
